In patent US20160272617A1, “SUBSTITUTED PHENYLALANINE DERIVATIVES” (BAYER PHARMA AKTIENGESELLSCHAFT, priority 2013, published 2016):
pIC50: −log10 of the molar value. Structures can show the parent of a compound that is named as a salt.

Columns and labels:
[1] = target: T1, human factor XIa (Homo sapiens, UniProt P03951); test: Measurement of FXIa inhibition (fluorogenic peptide substrate Boc-Glu(OBzl)-Ala-Arg-AMC); format: biochemical; settings: factor XIa from Kordia, 15 min preincubation, 30 min at 22° C., fluorescence
T1 construct: purchased Kordia
How it was run: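 Released AMC fluorescence (360/460 nm) read after 30 min at 22 °C. The reaction was started with Boc-Glu(OBzl)-Ala-Arg-AMC (10 μM stock) after a 15 min preincubation of the enzyme (0.45 nM stock) with compound (final 50 μM to 0.00013 μM).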

[2] = system: human and animal plasma; test: Determination of anticoagulatory activity: activated partial thromboplastin time (aPTT) in plasma; settings: concentration of test substance which brings about a 1.5-fold extension of the aPTT, plasma species not given
How it was run: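 Citrated plasma (1:9, 0.11 M citrate; 4000 g, 15 min) from human or animal blood incubated with test compound and cephalin/kaolin PTT reagent for 3 min at 37° C.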

T1 sequence (P03951 388-625 limits assumed): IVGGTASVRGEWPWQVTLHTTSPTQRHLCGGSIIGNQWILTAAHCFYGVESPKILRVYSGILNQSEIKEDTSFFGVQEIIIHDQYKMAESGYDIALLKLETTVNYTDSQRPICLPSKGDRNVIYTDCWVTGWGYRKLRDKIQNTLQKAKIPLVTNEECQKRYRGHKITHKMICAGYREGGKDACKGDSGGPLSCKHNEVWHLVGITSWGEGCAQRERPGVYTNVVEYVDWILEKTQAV
T1 sequence (P03951 19-387 partner limits assumed): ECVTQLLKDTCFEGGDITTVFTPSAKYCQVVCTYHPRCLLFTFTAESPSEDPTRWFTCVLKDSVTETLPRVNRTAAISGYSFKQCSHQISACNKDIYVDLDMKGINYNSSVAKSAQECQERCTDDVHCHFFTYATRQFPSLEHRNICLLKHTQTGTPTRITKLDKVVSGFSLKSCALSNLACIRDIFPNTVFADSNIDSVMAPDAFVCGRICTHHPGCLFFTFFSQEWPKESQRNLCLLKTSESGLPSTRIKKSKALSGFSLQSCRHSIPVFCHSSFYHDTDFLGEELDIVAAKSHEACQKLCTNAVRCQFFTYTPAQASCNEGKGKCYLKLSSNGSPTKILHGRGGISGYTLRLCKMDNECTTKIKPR

SMILES	pIC50 [1]	aPTT [2] [µmol/L]	aPTT ([2]; hydrochloride) [µmol/L]
Cc1cc(C(=O)NC2CCN(C)CC2)ccc1-c1ccc(C[C@H](NC(=O)[C@H]2CC[C@H](CN)CC2)C(=O)Nc2ccc3[nH]c(C(F)(F)C(F)(F)F)nc3c2)cc1 [Example 82, 4′-[(2S)-2-({[trans-4-(Aminomethyl)cyclohexyl]carbonyl}amino)-3-oxo-3-{[2-(pentafluoroethyl)-1H-benzimidazol-5-yl]amino}propyl]-2-methyl-N-(1-methylpiperidin-4-yl)biphenyl-4-carboxamide hydrochloride]	7.68	0.39	
Cc1cc(C(=O)N[C@H]2CCNC2)ccc1-c1ccc(C[C@H](NC(=O)[C@H]2CC[C@H](CN)CC2)C(=O)Nc2ccc(-c3nnc(Cl)[nH]3)cc2)cc1 [Example 83, 4′-[(2S)-2-({[trans-4-(Aminomethyl)cyclohexyl]carbonyl}amino)-3-{[4-(3-chloro-4H-1,2,4-triazol-5-yl)phenyl]amino}-3-oxopropyl]-2-methyl-N-[(3S)-pyrrolidin-3-yl]biphenyl-4-carboxamide hydrochloride]	8.60	0.09	
Cc1cc(C(=O)NC2CCNCC2)ccc1-c1ccc(C[C@H](NC(=O)[C@H]2CC[C@H](CN)CC2)C(=O)Nc2ccc(-c3c[nH]cn3)cc2)cc1 [Example 84, 4′-[(2S)-2-({[trans-4-(Aminomethyl)cyclohexyl]carbonyl}amino)-3-{[4-(1H-imidazol-4-yl)phenyl]amino}-3-oxopropyl]-2-methyl-N-(piperidin-4-yl)biphenyl-4-carboxamide hydrochloride]	7.74	0.3	
Cc1cc(C(=O)NC2CCNCC2)ccc1-c1ccc(C[C@H](NC(=O)[C@H]2CC[C@H](CN)CC2)C(=O)Nc2ccc3nc(C(F)(F)C(F)(F)C(F)(F)F)[nH]c3c2)cc1 [Example 85, 4′-[(2S)-2-({[trans-4-(Aminomethyl)cyclohexyl]carbonyl}amino)-3-{[2-(heptafluoropropyl)-1H-benzimidazol-6-yl]amino}-3-oxopropyl]-2-methyl-N-(piperidin-4-yl)biphenyl-4-carboxamide hydrochloride]	7.80	0.12	
Cc1cc(C(=O)NC2CCNCC2)ccc1-c1ccc(C[C@H](NC(=O)[C@H]2CC[C@H](CN)CC2)C(=O)Nc2ccc3nc(C(F)F)[nH]c3c2)cc1 [Example 86, 4′-[(2S)-2-({[trans-4-(Aminomethyl)cyclohexyl]carbonyl}amino)-3-{[2-(difluoromethyl)-1H-benzimidazol-6-yl]amino}-3-oxopropyl]-2-methyl-N-(piperidin-4-yl)biphenyl-4-carboxamide hydrochloride]	7.89	0.14	
Cc1cc(C(=O)NC2CCC(N(C)C)CC2)ccc1-c1ccc(C[C@H](NC(=O)[C@H]2CC[C@H](CN)CC2)C(=O)Nc2ccc(-c3nc(C(F)(F)C(F)(F)C(F)(F)F)n[nH]3)cc2)cc1 (stereo partly drawn) [Example 87, 4′-[(2S)-2-({[trans-4-(Aminomethyl)cyclohexyl]carbonyl}amino)-3-({4-[3-(heptafluoropropyl)-1H-1,2,4-triazol-5-yl]phenyl}amino)-3-oxopropyl]-N-[4-(dimethylamino)cyclohexyl]-2-methylbiphenyl-4-carboxamide hydrochloride]	8.55	0.47	
Cc1cc(C(=O)NC2CCCNC2=O)ccc1-c1ccc(C[C@H](NC(=O)[C@H]2CC[C@H](CN)CC2)C(=O)Nc2ccc(-c3nc(C(F)(F)C(F)(F)C(F)(F)F)n[nH]3)cc2)cc1 (stereo partly drawn) [Example 88, 4′-[(2S)-2-({[trans-4-(Aminomethyl)cyclohexyl]carbonyl}amino)-3-({4-[3-(heptafluoropropyl)-1H-1,2,4-triazol-5-yl]phenyl}amino)-3-oxopropyl]-2-methyl-N-(2-oxopiperidin-3-yl)biphenyl-4-carboxamide hydrochloride]	8.68	0.31	
Cc1cc(C(=O)NC2CCN(C(C)C)CC2)ccc1-c1ccc(C[C@H](NC(=O)[C@H]2CC[C@H](CN)CC2)C(=O)Nc2ccc(-c3nn[nH]n3)c(F)c2)cc1 [Example 89, 4′-[(2S)-2-({[trans-4-(Aminomethyl)cyclohexyl]carbonyl}amino)-3-{[3-fluoro-4-(2H-tetrazol-5-yl)phenyl]amino}-3-oxopropyl]-N-(1-isopropylpiperidin-4-yl)-2-methylbiphenyl-4-carboxamide hydrochloride]	8.37	0.03	
Cc1cc(C(=O)NC2CNCC(F)(F)C2)ccc1-c1ccc(C[C@H](NC(=O)[C@H]2CC[C@H](CN)CC2)C(=O)Nc2ccc(-c3nn[nH]n3)c(F)c2)cc1 (stereo partly drawn) [Example 90, 4′-[(2S)-2-({[trans-4-(Aminomethyl)cyclohexyl]carbonyl}amino)-3-{[3-fluoro-4-(2H-tetrazol-5-yl)phenyl]amino}-3-oxopropyl]-N-(5,5-difluoropiperidin-3-yl)-2-methylbiphenyl-4-carboxamide hydrochloride]	8.80	0.06	
Cl.NC[C@H]1CC[C@H](C(=O)N[C@@H](Cc2ccc(-c3ccc(C(=O)NCCN4CCCC4)cc3)cc2)C(=O)Nc2ccc(-c3nnn[nH]3)cc2)CC1 [Example 91, 4′-[(2S)-2-({[trans-4-(Aminomethyl)cyclohexyl]carbonyl}amino)-3-oxo-3-{[4-(1H-tetrazol-5-yl)phenyl]amino}propyl]-N-[2-(pyrrolidin-1-yl)ethyl]biphenyl-4-carboxamide hydrochloride]	8.14	0.14	
Cc1cc(C(=O)N[C@H]2CCCNC2=O)ccc1-c1ccc(C[C@H](NC(=O)[C@H]2CC[C@H](CN)CC2)C(=O)Nc2ccc3c(Cl)n[nH]c3c2)cc1 [Example 93, 4′-{(2S)-2-({[trans-4-(Aminomethyl)cyclohexyl]carbonyl}amino)-3-[(3-chloro-1H-indazol-6-yl)amino]-3-oxopropyl}-2-methyl-N-[(3S)-2-oxopiperidin-3-yl]biphenyl-4-carboxamide hydrochloride]	8.62	0.21	
CCN(CC)C1CCC(NC(=O)c2ccc(-c3ccc(C[C@H](NC(=O)[C@H]4CC[C@H](CN)CC4)C(=O)Nc4ccc5c(Cl)n[nH]c5c4)cc3)c(C)c2)CC1 (stereo partly drawn) [Example 94, 4′-{(2S)-2-({[trans-4-(Aminomethyl)cyclohexyl]carbonyl}amino)-3-[(3-chloro-1H-indazol-6-yl)amino]-3-oxopropyl}-N-[4-(diethylamino)cyclohexyl]-2-methylbiphenyl-4-carboxamide hydrochloride]	8.04	0.23	
Cc1cc(-c2ccc(C[C@H](NC(=O)[C@H]3CC[C@H](CN)CC3)C(=O)Nc3ccc(-c4nnn[nH]4)cc3)cc2)ccc1C(=O)NC1CC1 [Example 95, 4′-[(2S)-2-({[trans-4-(Aminomethyl)cyclohexyl]carbonyl}amino)-3-oxo-3-{[4-(1H-tetrazol-5-yl)phenyl]amino}propyl]-N-cyclopropyl-3-methylbiphenyl-4-carboxamide hydrochloride]	8.62	0.33	
Cc1cc(C(=O)N[C@@H]2C[C@@H](CO)NC2=O)ccc1-c1ccc(C[C@H](NC(=O)[C@H]2CC[C@H](CN)CC2)C(=O)Nc2ccc3[nH]c(=O)[nH]c3c2)cc1 [Example 97, 4′-{(2S)-2-({[trans-4-(Aminomethyl)cyclohexyl]carbonyl}amino)-3-oxo-3-[(2-oxo-2,3-dihydro-1H-benzimidazol-5-yl)amino]propyl}-N-[(3R,5S)-5-(hydroxymethyl)-2-oxopyrrolidin-3-yl]-2-methylbiphenyl-4-carboxamide hydrochloride]	8.49	0.06	
Cc1cc(C(=O)NC2CCNCC2)ccc1-c1ccc(C[C@H](NC(=O)[C@H]2CC[C@H](CN)CC2)C(=O)Nc2ccc(-c3nc(C(F)(F)C(F)(F)C(=O)O)n[nH]3)cc2)cc1 [Example 98, 3-{(5-[4-({(2S)-2-({[trans-4-(Aminomethyl)cyclohexyl]carbonyl}amino)-3-[2′-methyl-4′-(piperidin-4-ylcarbamoyl)biphenyl-4-yl]propanoyl}amino)phenyl]-1H-1,2,4-triazol-3-yl}-2,2,3,3-tetrafluoropropanoic acid hydrochloride]	9.00	0.06	
Cc1cc(C(=O)N[C@H]2CCNC2=O)ccc1-c1ccc(C[C@H](NC(=O)[C@H]2CC[C@H](CN)CC2)C(=O)Nc2cc(F)c3oc(=O)[nH]c3c2)cc1 [Example 99, 4′-{(2S)-2-({[trans-4-(Aminomethyl)cyclohexyl]carbonyl}amino)-3-[(7-fluoro-2-oxo-2,3-dihydro-1,3-benzoxazol-5-yl)amino]-3-oxopropyl}-2-methyl-N-[(3S)-2-oxopyrrolidin-3-yl]biphenyl-4-carboxamide hydrochloride]	8.33	0.27	
Cc1cc(C(=O)NC2CCN(C)CC2)ccc1-c1ccc(C[C@H](NC(=O)[C@H]2CC[C@H](CN)CC2)C(=O)Nc2ccc(-c3nc(C(F)(F)C(F)(F)C(=O)O)n[nH]3)cc2)cc1 [Example 100, 3-[5-(4-{[(2S)-2-({[trans-4-(Aminomethyl)cyclohexyl]carbonyl}amino)-3-{2′-methyl-4′-[(1-methylpiperidin-4-yl)carbamoyl]biphenyl-4-yl}propanoyl]amino}phenyl)-1H-1,2,4-triazol-3-yl]-2,2,3,3-tetrafluoropropanoic acid hydrochloride]	8.66		0.1
